Results: ChEMBL document CHEMBL1201862, “PubChem BioAssay data set” (2004)
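The compound was tested at five concentrations on cells cultured in 96-well plates, with a 48-hour exposure period. At the GI50, growth is halved.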 The source made the active and inactive calls. Rule as the data show it: active = GI50 up to about 1.1 µM and inactive = higher.

Legend:
Test in all cases: inhibition of tumour cell growth, NCI panel, 48 h
DLD-1 = tested on: DLD-1
UACC-257 = tested on: UACC-257
IGROV-1 = tested on: IGROV-1
SF-268 = tested on: SF-268
OVCAR-5 = tested on: OVCAR-5
SR = tested on: SR
XF498 = tested on: XF498
DMS-273 = tested on: DMS-273
HL-60 = tested on: HL-60
Malme-3M = tested on: Malme-3M
A498 = tested on: A498
K562 = tested on: K562
DMS-114 = tested on: DMS-114
CAKI-1 = tested on: CAKI-1
SK-MEL-5 = tested on: SK-MEL-5

Measured: GI50

CC(=O)C1(O)CCC2(O)C3(O)CC=C4CC(O)CCC4(C)C3CC(OC(=O)c3ccc(O)cc3)C12C.COC1CC(OC2C(C)OC(OC3C(C)OC(OC4CCC5(C)C(=CCC6(O)C5CC(OC(=O)c5ccc(O)cc5)C5(C)C(O)(C(C)=O)CCC65O)C4)CC3OC)CC2OC)OC(C)C1O (centres undefined)
inactive: DLD-1 36.6 µM | UACC-257 23.4 µM | IGROV-1 34.2 µM | SF-268 30.6 µM | OVCAR-5 87.5 µM | SR 25.8 µM | XF498 2.03 µM | DMS-273 36.2 µM | HL-60 20.7 µM | Malme-3M 25.1 µM

CCc1cccc(C(C)CC)c1NC(=O)CC1C(=O)Nc2ccccc2[S+]1[O-] (centres undefined)
inactive: A498 37.2 µM | DLD-1 32.8 µM | K562 42.3 µM | UACC-257 > 100 µM | IGROV-1 19.9 µM | DMS-114 28.2 µM | SF-268 40.9 µM | OVCAR-5 33.1 µM | SR 30 µM | CAKI-1 26.4 µM | DMS-273 34 µM | SK-MEL-5 27.2 µM | HL-60 49.4 µM | Malme-3M 37.2 µM

Cc1c(C(=O)Nc2ccc(Cl)cc2)nc(N)nc1-c1cccc(Cl)c1
inactive: DLD-1 > 100 µM | K562 38.5 µM | UACC-257 > 100 µM | IGROV-1 > 100 µM | DMS-114 94.4 µM | SF-268 > 100 µM | OVCAR-5 > 100 µM | SR > 100 µM | CAKI-1 68.7 µM | DMS-273 > 100 µM | SK-MEL-5 > 100 µM | HL-60 39.2 µM | Malme-3M > 100 µM

Cc1cc(O)nc(NNC(C#N)c2ccc([N+](=O)[O-])cc2)n1 (centres undefined)
inactive: DLD-1 > 100 µM | K562 > 100 µM | UACC-257 > 100 µM | IGROV-1 76.9 µM | DMS-114 45.6 µM | SF-268 > 100 µM | OVCAR-5 > 100 µM | SR 26.3 µM | CAKI-1 33.4 µM | DMS-273 91.4 µM | SK-MEL-5 > 100 µM | HL-60 63.4 µM | Malme-3M 70.1 µM

COC[C@@H](/N=C/N1CCc2cc(OC)c(OC)cc2[C@@H]1C)C(C)(C)C
inactive: DLD-1 > 100 µM | K562 > 100 µM | UACC-257 > 100 µM | IGROV-1 > 100 µM | DMS-114 > 100 µM | SF-268 > 100 µM | SR > 100 µM | CAKI-1 > 100 µM | XF498 > 100 µM | SK-MEL-5 > 100 µM | HL-60 > 100 µM | Malme-3M > 100 µM

COc1ccc2c(c1)[n+]([O-])c(-c1ccc([N+](=O)[O-])cc1)c(N)[n+]2[O-]
inactive: A498 > 100 µM | DLD-1 63.1 µM | K562 32.6 µM | UACC-257 81.3 µM | IGROV-1 75.2 µM | DMS-114 21.4 µM | SF-268 78.2 µM | OVCAR-5 > 100 µM | SR 18.7 µM | CAKI-1 > 100 µM | DMS-273 > 100 µM | SK-MEL-5 > 100 µM | HL-60 57.5 µM | Malme-3M > 100 µM

CC(=O)OCC(OC(C)=O)C(OC(C)=O)C(OC(C)=O)C(=O)CNn1c(-c2ccccc2Cl)nc2ccc(Br)cc2c1=O (centres undefined)
inactive: A498 55.7 µM | K562 44 µM | UACC-257 > 100 µM | DMS-114 30.4 µM | SF-268 > 100 µM | OVCAR-5 > 100 µM | SR 43.8 µM | CAKI-1 38.3 µM | XF498 15.5 µM | DMS-273 56.5 µM | SK-MEL-5 57.5 µM | HL-60 23.8 µM | Malme-3M > 100 µM

CN[C@H](C)[C@@H](OC)c1ccccc1
inactive: DLD-1 > 100 µM | K562 > 100 µM | UACC-257 > 100 µM | IGROV-1 > 100 µM | DMS-114 > 100 µM | OVCAR-5 > 100 µM | CAKI-1 > 100 µM | XF498 > 100 µM | DMS-273 > 100 µM | SK-MEL-5 > 100 µM | HL-60 > 100 µM | Malme-3M > 100 µM

CC(=O)NC(CCCCNCc1ccccc1)C(=O)NCc1ccccc1 (centres undefined)
inactive: A498 > 100 µM | DLD-1 > 100 µM | K562 > 100 µM | UACC-257 > 100 µM | IGROV-1 > 100 µM | DMS-114 > 100 µM | SF-268 > 100 µM | OVCAR-5 > 100 µM | CAKI-1 > 100 µM | XF498 > 100 µM | DMS-273 > 100 µM | SK-MEL-5 > 100 µM | Malme-3M > 100 µM

CC1C(=O)CCC1C(Sc1ccccc1)(Sc1ccccc1)Sc1ccccc1 (centres undefined)
inactive: A498 23.2 µM | DLD-1 28.8 µM | K562 20.5 µM | UACC-257 31.5 µM | IGROV-1 15.1 µM | DMS-114 13.8 µM | SF-268 10.7 µM | OVCAR-5 > 100 µM | CAKI-1 16.9 µM | XF498 24.7 µM | DMS-273 23.3 µM | SK-MEL-5 16.9 µM | HL-60 5.83 µM | Malme-3M 37.1 µM

CCc1ccccc1NC(=O)C1=C(C)NC(C)=C(C(=O)Nc2ccccc2CC)C1c1ccc2c(c1)OCO2
inactive: A498 25.1 µM | DLD-1 22.7 µM | K562 26.5 µM | UACC-257 30.9 µM | IGROV-1 29.4 µM | DMS-114 22.9 µM | SF-268 25.2 µM | OVCAR-5 27.1 µM | CAKI-1 25.2 µM | XF498 23 µM | SK-MEL-5 23.2 µM | HL-60 16.9 µM | Malme-3M 25.3 µM

Cc1ccc(S(=O)(=O)NC2CCCCO2)cc1 (centres undefined)
inactive: A498 > 100 µM | DLD-1 > 100 µM | K562 > 100 µM | UACC-257 > 100 µM | IGROV-1 > 100 µM | DMS-114 > 100 µM | SF-268 > 100 µM | OVCAR-5 > 100 µM | CAKI-1 > 100 µM | XF498 > 100 µM | DMS-273 > 100 µM | SK-MEL-5 > 100 µM | Malme-3M > 100 µM

O=C1NC(=O)C2C1N(Cc1ccccc1)C(=O)N2Cc1ccccc1 (centres undefined)
inactive: A498 > 100 µM | DLD-1 > 100 µM | K562 > 100 µM | UACC-257 > 100 µM | IGROV-1 > 100 µM | DMS-114 > 100 µM | SF-268 > 100 µM | OVCAR-5 > 100 µM | SR > 100 µM | CAKI-1 > 100 µM | XF498 > 100 µM | SK-MEL-5 > 100 µM | HL-60 > 100 µM | Malme-3M > 100 µM

C=Cc1ccc(C)[n+](C[Si](C)(C)O[Si](C)(C)C[n+]2cc(C=C)ccc2C)c1
inactive: DLD-1 > 100 µM | K562 > 100 µM | UACC-257 > 100 µM | IGROV-1 > 100 µM | DMS-114 > 100 µM | SF-268 > 100 µM | OVCAR-5 > 100 µM | SR > 100 µM | CAKI-1 > 100 µM | DMS-273 > 100 µM | SK-MEL-5 > 100 µM | HL-60 > 100 µM | Malme-3M > 100 µM

Nc1ccccc1S(=O)(=O)N(CC(=O)O)c1ccccc1
inactive: A498 > 100 µM | DLD-1 > 100 µM | K562 > 100 µM | UACC-257 > 100 µM | IGROV-1 > 100 µM | SF-268 > 100 µM | OVCAR-5 > 100 µM | CAKI-1 > 100 µM | XF498 > 100 µM | DMS-273 > 100 µM | SK-MEL-5 > 100 µM | HL-60 > 100 µM | Malme-3M > 100 µM
